Test results as given in PubChem BioAssay AID1963445 (Molecular Pharmacology Branch, DTP, NCI, 2024).

System: MCF7 complex spheroid growth, % test/control
Test: Anticancer human tumor MCF7 cell line growth inhibition [Asc];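 further: spheroids exposed to compounds for 7 days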;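 on viability, T/C: 100% = DMSO vehicle control wells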
Details: for IC50: curve of first compound; for viability, T/C: stronger effect = lower value
How it was run: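 Concentration series start at each agent's clinical Cmax, or at 10 microM when none is established, and drop in half-log steps; agents are applied alone or together to complex spheroids built with HUVEC and hMSC.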

[1] = second compound 0.0316 µM, first compound 0.0316 µM
[2] = second compound 0.0316 µM, first compound 0.1 µM
[3] = second compound 0.0316 µM, first compound 0.316 µM
[4] = second compound 0.0316 µM, first compound 1 µM
[5] = second compound 0.1 µM, first compound 0.0316 µM
[6] = second compound 0.1 µM, first compound 0.1 µM
[7] = second compound 0.1 µM, first compound 0.316 µM
[8] = second compound 0.1 µM, first compound 1 µM
[9] = second compound 0.316 µM, first compound 0.0316 µM
[10] = second compound 0.316 µM, first compound 0.1 µM
[11] = second compound 0.316 µM, first compound 0.316 µM
[12] = second compound 0.316 µM, first compound 1 µM
[13] = second compound 1 µM, first compound 0.0316 µM
[14] = second compound 1 µM, first compound 0.1 µM
[15] = second compound 1 µM, first compound 0.316 µM
[16] = second compound 1 µM, first compound 1 µM
[17] = second compound 3.16 µM, first compound 0.0316 µM
[18] = second compound 3.16 µM, first compound 0.1 µM
[19] = second compound 3.16 µM, first compound 0.316 µM
[20] = second compound 3.16 µM, first compound 1 µM
[21] = second compound 10 µM, first compound 0.0316 µM
[22] = second compound 10 µM, first compound 0.1 µM
[23] = second compound 10 µM, first compound 0.316 µM
[24] = second compound 10 µM, first compound 1 µM

`C#Cc1c(F)ccc2cc(O)cc(-c3ncc4c(N5CC6CCC(C5)N6)nc(OCC56CCCN5CC(F)C6)nc4c3F)c12` (centres undefined) + Cc1c(S(C)(=O)=O)c(-c2cc(F)cc(N3CCN(c4ccc(NS(=O)(=O)c5ccc(NC(CCN6CCC(C(=O)OCCCP(=O)(O)O)CC6)CSc6ccccc6)c(S(=O)(=O)C(F)(F)F)c5)cc4)CC3)c2)c(-c2ccc(Cl)cc2)n1C(C)C was tested, and the IC50 (second compound 0.0316 µM) was over 10000 nM, the IC50 (second compound 0.1 µM) was over 10000 nM and the IC50 (second compound 0.316 µM) was over 10000 nM. For the same molecule, the IC50 (second compound 1 µM) was over 10000 nM, the IC50 (second compound 3.16 µM) was over 10000 nM and the IC50 (second compound 10 µM) was over 10000 nM. The viability, T/C [1] was 96.2%, the viability, T/C [2] was 90% and the viability, T/C [3] was 89.6%. For the same molecule, the viability, T/C [4] was 92.3%, the viability, T/C (second compound 0.0316 µM, first compound 3.16 µM) was 98.4% and the viability, T/C (second compound 0.0316 µM, first compound 10 µM) was 91.8%. It also gave a viability, T/C [5] of 104%, a viability, T/C [6] of 103% and a viability, T/C [7] of 87.5%. The viability, T/C [8] was 84.1%, the viability, T/C (second compound 0.1 µM, first compound 3.16 µM) was 83.4% and the viability, T/C (second compound 0.1 µM, first compound 10 µM) was 82.5%. It also gave a viability, T/C [9] of 91%, a viability, T/C [10] of 83% and a viability, T/C [11] of 73.7%. For the same molecule, the viability, T/C [12] was 86.7%, the viability, T/C (second compound 0.316 µM, first compound 3.16 µM) was 88.6% and the viability, T/C (second compound 0.316 µM, first compound 10 µM) was 86.5%. For the same molecule, the viability, T/C [13] was 86%, the viability, T/C [14] was 95.9% and the viability, T/C [15] was 81.9%. For the same molecule, the viability, T/C [16] was 82.6%, the viability, T/C (second compound 1 µM, first compound 3.16 µM) was 79% and the viability, T/C (second compound 1 µM, first compound 10 µM) was 85.7%. For the same molecule, the viability, T/C [17] was 80.3%, the viability, T/C [18] was 77.7% and the viability, T/C [19] was 88.7%. For the same molecule, the viability, T/C [20] was 72.5%, the viability, T/C (second compound 3.16 µM, first compound 3.16 µM) was 74.1% and the viability, T/C (second compound 3.16 µM, first compound 10 µM) was 80.5%. The viability, T/C [21] was 272%, the viability, T/C [22] was 226% and the viability, T/C [23] was 251%. For the same molecule, the viability, T/C [24] was 292%, the viability, T/C (second compound 10 µM, first compound 3.16 µM) was 249% and the viability, T/C (second compound 10 µM, first compound 10 µM) was 196%.
Molecule `CNC(C)C(=O)NC1CN(S(=O)(=O)c2cccc(S(=O)(=O)N3CCC4CCC(C(=O)NC(c5ccccc5)c5ccccc5)N4C(=O)C(NC(=O)C(C)NC)C3)c2)CCC2CCC(C(=O)NC(c3ccccc3)c3ccccc3)N2C1=O` (centres undefined) + Cc1c(S(C)(=O)=O)c(-c2cc(F)cc(N3CCN(c4ccc(NS(=O)(=O)c5ccc(NC(CCN6CCC(C(=O)OCCCP(=O)(O)O)CC6)CSc6ccccc6)c(S(=O)(=O)C(F)(F)F)c5)cc4)CC3)c2)c(-c2ccc(Cl)cc2)n1C(C)C has an IC50 (second compound 0.0316 µM) of 5.15 nM, an IC50 (second compound 0.1 µM) of 6.44 nM and an IC50 (second compound 0.316 µM) of 4.92 nM. For the same molecule, the IC50 (second compound 1 µM) was 5.56 nM, the IC50 (second compound 3.16 µM) was under 3.16 nM and the IC50 (second compound 10 µM) was 4.17 nM. The viability, T/C (second compound 0.0316 µM, first compound 0.00316 µM) was 73.3%, the viability, T/C (second compound 0.0316 µM, first compound 0.01 µM) was 17.6% and the viability, T/C [1] was 15.6%. It also gave a viability, T/C [2] of 18.6%, a viability, T/C [3] of 16.3% and a viability, T/C [4] of 20.2%. It also gave a viability, T/C (second compound 0.1 µM, first compound 0.00316 µM) of 96.3%, a viability, T/C (second compound 0.1 µM, first compound 0.01 µM) of 21.4% and a viability, T/C [5] of 17.3%. It also gave a viability, T/C [6] of 17%, a viability, T/C [7] of 17.7% and a viability, T/C [8] of 16.9%. It also gave a viability, T/C (second compound 0.316 µM, first compound 0.00316 µM) of 65.9%, a viability, T/C (second compound 0.316 µM, first compound 0.01 µM) of 25.1% and a viability, T/C [9] of 16.4%. For the same molecule, the viability, T/C [10] was 19%, the viability, T/C [11] was 19.2% and the viability, T/C [12] was 18.8%. It also gave a viability, T/C (second compound 1 µM, first compound 0.00316 µM) of 78.9%, a viability, T/C (second compound 1 µM, first compound 0.01 µM) of 20% and a viability, T/C [13] of 18.6%. It also gave a viability, T/C [14] of 19.8%, a viability, T/C [15] of 17.4% and a viability, T/C [16] of 15.9%. The viability, T/C (second compound 3.16 µM, first compound 0.00316 µM) was 37%, the viability, T/C (second compound 3.16 µM, first compound 0.01 µM) was 19.1% and the viability, T/C [17] was 18.3%. The viability, T/C [18] was 22.8%, the viability, T/C [19] was 20.4% and the viability, T/C [20] was 20.1%. For the same molecule, the viability, T/C (second compound 10 µM, first compound 0.00316 µM) was 56%, the viability, T/C (second compound 10 µM, first compound 0.01 µM) was 31.6% and the viability, T/C [21] was 23.8%. For the same molecule, the viability, T/C [22] was 21.7%, the viability, T/C [23] was 21.5% and the viability, T/C [24] was 24%.
